Experimental data from patent US4992455A, “Thiazolidin-4-one derivatives useful for treating diseases caused by platelet activating factor” (Sumitomo Pharmaceuticals Company, Limited, priority 1987, dated 1991).
Values after ≈ are worked out from the molar mass of the structure shown.

These compounds were tested on PAF-induced rabbit platelet aggregation (assay: Inhibition of PAF-induced rabbit platelet aggregation (in vitro, platelet-rich plasma)). Settings: Oryctolagus cuniculus, rabbit PRP, 37° C., final PAF concentration 0.005 μ1/ml [sic].
Type: cell-based
Description: (§1) The inhibition of PAF-induced platelet aggregation was examined by using a platelet-rich plasma (PRP) of rabbit according to the method of Mustard et al. [J.F. Mustard et al., J. Lab. Clin. Med., 64, 548 (1964)], which is an improvement of the method of Born [G.V.R. Born, J. Physiol., London, 162, 67 (1962)]. That is, 80-100 ml of blood per animal was collected from carotid arteries of male rabbits of the Japanese white breed without anesthesia into a polyethylene vessel containing 1/10 the volume of a 3.8% sodium citrate solution. A portion (about 3 ml) of the collected blood was centrifuged at a high speed (11,000 rpm) for 60 seconds, giving a platelet-poor plasma (PPP) as supernatant. The remainder of the blood was centrifuged at a low speed (1000 rpm) for 10 minutes, giving a platelet-rich plasma (PRP) as supernatant.
(§2) The degree of platelet aggregation was determined by nephelometry with an aggregometer (Hematracer, Niko Bioscience Co.) while stirring the PRP at 1000 rpm at 37° C. The platelet aggregation activity was expressed in terms of the light transmittance (%), the value of PRP being taken as 0% and the value of PPP as 100%. A portion (0.2 ml) of the PRP was placed in a glass cuvette containing a silicone-treated stirring iron rod, and 2 µl of dimethylsulfoxide was added. AFter 2 minutes, PAF dissolved in 0.25% BSA physiological saline was added to give a final PAF concentration of 0.005 μ1/ml, and the maximum aggregation was determined. To examine the inhibitory activity of test compounds on the platelet aggregation caused by PAF, 2 µl of a dimethylsulfoxide solution of each test compound was added in place of the dimethylsulfoxide. The percentage inhibition by the test compound of PAF-induced platelet aggregation was calculated according to the following equation and the value of IC50 was determined. [formula]

SMILES | IC50
CCOC(=O)CN1C(=O)[C@@H](C)S[C@H]1c1cccnc1 (relative stereo) [Compound No. 9, 3-ethoxycarbonylmethyl-5-methyl-2(3-pyridyl)thiazolidin-4-one] | 1.6 µg/mL (≈ 5.71 µM)
C[C@H]1S[C@H](c2cccnc2)N(CC(=O)OC(C)(C)C)C1=O (relative stereo) [Compound No. 15, 3-t-butyloxycarbonylmethyl-5-methyl-2-(3-pyridyl)thiazolidin-4-one] | 2.6 µg/mL (≈ 8.43 µM)
CC(=O)SCCN1C(=O)[C@@H](C)S[C@H]1c1cccnc1 (relative stereo) [Compound No. 18, 3-(2-Acetylthioethyl)-5-methyl-2(3-pyridyl)thiazolidin-4-one] | 3 µg/mL (≈ 10.1 µM)
COc1ccc(CCN2C(=O)[C@@H](C)S[C@@H]2c2cccnc2)cc1OC (relative stereo) [compound 37] | 0.7 µg/mL (≈ 1.95 µM)
CCCCCCCCC[C@H]1S[C@H](c2cccnc2)N(C)C1=O (relative stereo) [compound 49] | 2.4 µg/mL (≈ 7.49 µM)
CCCCCCCCC[C@H]1S[C@@H](c2cccnc2)N(C)C1=O (relative stereo) [compound 50] | 4.6 µg/mL (≈ 14.4 µM)
CCC[C@H]1S[C@H](c2cccnc2)N(CCN(C)C)C1=O (relative stereo) [compound 67] | 0.45 µg/mL (≈ 1.53 µM)
CCCC[C@H]1S[C@H](c2cccnc2)N(CCN(C)C)C1=O (relative stereo) [compound 69] | 0.24 µg/mL (≈ 0.781 µM)
CCCCC[C@H]1S[C@H](c2cccnc2)N(CCN(C)C)C1=O (relative stereo) [compound 71] | 0.32 µg/mL (≈ 0.995 µM)
CCCCCC[C@H]1S[C@H](c2cccnc2)N(CCN(C)C)C1=O (relative stereo) [compound 73] | 0.07 µg/mL (≈ 0.209 µM)
CCCCCCC[C@H]1S[C@H](c2cccnc2)N(CCN(C)C)C1=O (relative stereo) [compound 75] | 0.06 µg/mL (≈ 0.172 µM)
CCCCCCC[C@H]1S[C@@H](c2cccnc2)N(CCN(C)C)C1=O (relative stereo) [compound 76] | 0.2 µg/mL (≈ 0.572 µM)
CCCCCCCC[C@H]1S[C@H](c2cccnc2)N(CCN(C)C)C1=O (relative stereo) [compound 77] | 0.034 µg/mL (≈ 0.0935 µM)
CCCCCCCC[C@H]1S[C@@H](c2cccnc2)N(CCN(C)C)C1=O (relative stereo) [compound 78] | 0.14 µg/mL (≈ 0.385 µM)
CCCCCCCCCC[C@H]1S[C@H](c2cccnc2)N(CCN(C)C)C1=O (relative stereo) [compound 79] | 0.05 µg/mL (≈ 0.128 µM)
CCCCCCCCCC[C@H]1S[C@@H](c2cccnc2)N(CCN(C)C)C1=O (relative stereo) [compound 80] | 0.35 µg/mL (≈ 0.894 µM)
CCCCCCCCCCC[C@H]1S[C@H](c2cccnc2)N(CCN(C)C)C1=O (relative stereo) [compound 81] | 0.1 µg/mL (≈ 0.247 µM)
CCCCCCCCCCC[C@H]1S[C@@H](c2cccnc2)N(CCN(C)C)C1=O (relative stereo) [compound 82] | 0.6 µg/mL (≈ 1.48 µM)
CCCCCCCCCCCC[C@H]1S[C@H](c2cccnc2)N(CCN(C)C)C1=O (relative stereo) [compound 83] | 0.27 µg/mL (≈ 0.643 µM)
CCCCCCCCC[C@H]1S[C@@H](c2cccnc2)N(CCCN(C)C)C1=O (relative stereo) [compound 108] | 0.7 µg/mL (≈ 1.79 µM)
C[C@H]1S[C@H](c2cccnc2)N(CCN(C)C)C1=O (relative stereo) [compound 127] | 1.7 µg/mL (≈ 6.41 µM)
C[C@H]1S[C@@H](c2cccnc2)N(CCN(C)C)C1=O (relative stereo) [compound 128] | 4.2 µg/mL (≈ 15.8 µM)
CN(C)CCN1C(=O)[C@@H](CCOCc2ccccc2)S[C@@H]1c1cccnc1 (relative stereo) [compound 131] | 0.14 µg/mL (≈ 0.363 µM)

SMILES | IC50
CCCCOCC[C@H]1S[C@H](c2cccnc2)N(CCN(C)C)C1=O (relative stereo) [compound 133] | 0.18 µg/mL (≈ 0.512 µM)
CCCCOCCOCC[C@H]1S[C@H](c2cccnc2)N(CCN(C)C)C1=O (relative stereo) [compound 135] | 0.15 µg/mL (≈ 0.379 µM)
CC(C)COCCOCC[C@H]1S[C@H](c2cccnc2)N(CCN(C)C)C1=O (relative stereo) [compound 150] | 0.16 µg/mL (≈ 0.404 µM)
CN(C)CCN1C(=O)[C@@H](CCCO[Si](C)(C)C(C)(C)C)S[C@@H]1c1cccnc1 (relative stereo) [compound 169] | 0.026 µg/mL (≈ 0.0614 µM)
CN(C)CCN1C(=O)[C@@H](CCCO[Si](C)(C)C(C)(C)C)S[C@H]1c1cccnc1 (relative stereo) [compound 170] | 0.052 µg/mL (≈ 0.123 µM)
C[C@H]1S[C@@H](c2cccnc2)N(C)C1=O (single isomer, unassigned) [compound 178, (+)-cis-3,5-dimethyl-2-(3-pyridyl)-thiazolidin-4-one] | 1.5 µg/mL (≈ 7.2 µM)
C[C@@H]1S[C@@H](c2cccnc2)N(C)C1=O (single isomer, unassigned) [compound 181, (+)-trans-3,5-dimethyl-2-(3-pyridyl)-thiazolidin-4-one] | 5 µg/mL (≈ 24 µM)
CCCCC1SC(c2cccnc2)N(C)C1=O (stereo not drawn) [compound 7, 5-butyl-3-methyl-2-(3-pyridyl)-thiazolidin-4-one] | 2 µg/mL (≈ 7.99 µM)
CN1C(=O)C(C)(C)SC1c1cccnc1 (stereo not drawn) [compound 8, 5,5,3-trimethyl-2-(3-pyridyl)-thiazolidin-4-one] | 3.6 µg/mL (≈ 16.2 µM)
CCC1SC(c2cccnc2)N(CCN(C)C)C1=O (stereo not drawn) [compound 24, 5-ethyl-3-(2-dimethylaminoethyl)-2-(3-pyridyl)thiazolidin-4-one] | 2 µg/mL (≈ 7.16 µM)
CN(C)CCN1C(=O)C(C)(C)SC1c1cccnc1 (stereo not drawn) [compound 25, 5,5-dimethyl-3-(2-dimethylaminoethyl)2-(3-pyridyl)thiazolidin-4-one] | 10 µg/mL (≈ 35.8 µM)
CCN1C(=O)C(C)SC1c1cccnc1 (stereo not drawn) [compound 30] | 4.2 µg/mL (≈ 18.9 µM)
CCC1SC(c2cccnc2)N(C)C1=O (stereo not drawn) [compound 42] | 2.5 µg/mL (≈ 11.2 µM)
CCCC1SC(c2cccnc2)N(C)C1=O (stereo not drawn) [compound 43] | 1.2 µg/mL (≈ 5.08 µM)
CCCCCC1SC(c2cccnc2)N(C)C1=O (stereo not drawn) [compound 46] | 1.9 µg/mL (≈ 7.19 µM)
CCCCCCC1SC(c2cccnc2)N(C)C1=O (stereo not drawn) [compound 47] | 1.4 µg/mL (≈ 5.03 µM)
CCCCCCCCCCC1SC(c2cccnc2)N(C)C1=O (stereo not drawn) [compound 51] | 1.4 µg/mL (≈ 4.18 µM)
CN(C)CCN1C(=O)C(CCOCc2ccccc2)(CCOCc2ccccc2)SC1c1cccnc1 (stereo not drawn) [compound 130] | 4.2 µg/mL (≈ 8.08 µM)
CCOCCCC1SC(c2cccnc2)N(CCN(C)C)C1=O (stereo not drawn) [compound 137] | 0.19 µg/mL (≈ 0.563 µM)
CC(C)OCCC1SC(c2cccnc2)N(CCN(C)C)C1=O (stereo not drawn) [compound 154] | 2.4 µg/mL (≈ 7.11 µM)
CN(C)CCN1C(=O)C(CCOCCO[Si](C)(C)C(C)(C)C)SC1c1cccnc1 (stereo not drawn) [compound 165] | 0.3 µg/mL (≈ 0.661 µM)
CN(C)CCN1C(=O)C(CC(F)(F)F)SC1c1cccnc1 (stereo not drawn) [compound 171] | 4.2 µg/mL (≈ 12.6 µM)

These compounds were tested on PAF-induced human platelet aggregation (assay: Inhibition of PAF-induced human platelet aggregation (in vitro, human PRP)). Settings: PAF concentration 0.3 μM.
Type: cell-based
Description: as §1, §2
The inhibition of PAF-induced platelet aggregation was tested by using human PRP. The test was conducted according to the procedure of the above case of rabbit, thereby evaluating the percentages inhibition and IC50 values of test compounds at final PAF concentrations of 0.3 μM and 1 μM.

SMILES | IC50
C#CCN1C(=O)[C@@H](C)S[C@@H]1c1cccnc1 (relative stereo) [compound 33] | 5.5 µg/mL (≈ 23.7 µM)
CCCCCCCCC[C@H]1S[C@@H](c2cccnc2)N(CCCN(C)C)C1=O (relative stereo) [compound 108] | 1.8 µg/mL (≈ 4.6 µM)

Same assay, conditions: PAF concentration 1 μM

SMILES | IC50
CCCCCCCCC[C@H]1S[C@@H](c2cccnc2)N(CCCN(C)C)C1=O (relative stereo) [compound 108] | 6 µg/mL (≈ 15.3 µM)
